Publication PMC5431342, “Discovery of an enzyme and substrate selective inhibitor of ADAM10 using an exosite-binding glycosylated substrate” (Scientific Reports, 2016)
Like-named read-outs stand apart in the source and are kept apart here.

Tests used:
ADAM10 = target: T1, ADAM10 (Homo sapiens, UniProt O14672); assay: ADAM10 kinetic assays, determination of inhibition type and mechanism; assay type: biochemical
T1 construct: purchased R&D Systems 936-AD
T1 sequence (O14672 214-748): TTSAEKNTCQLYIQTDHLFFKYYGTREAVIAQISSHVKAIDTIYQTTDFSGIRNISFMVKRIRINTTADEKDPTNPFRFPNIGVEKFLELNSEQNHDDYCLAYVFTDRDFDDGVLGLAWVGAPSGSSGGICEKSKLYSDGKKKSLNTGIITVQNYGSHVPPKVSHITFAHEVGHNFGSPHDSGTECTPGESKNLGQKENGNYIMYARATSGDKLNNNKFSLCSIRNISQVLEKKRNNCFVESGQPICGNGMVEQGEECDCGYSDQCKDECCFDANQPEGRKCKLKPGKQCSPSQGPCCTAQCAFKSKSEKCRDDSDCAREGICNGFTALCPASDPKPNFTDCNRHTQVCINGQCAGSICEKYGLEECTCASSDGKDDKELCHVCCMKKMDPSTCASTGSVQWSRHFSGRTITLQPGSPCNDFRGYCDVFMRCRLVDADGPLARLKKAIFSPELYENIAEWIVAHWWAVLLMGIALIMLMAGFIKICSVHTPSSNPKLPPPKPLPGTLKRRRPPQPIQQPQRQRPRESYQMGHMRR
Protocol: Since true affinity of time-dependent inhibitors cannot be determined by steady state approaches, in order to determine the true inhibition modality and true affinity of CID 3117694 we performed kinetic assays with the range of glycosylated substrate (0.5–5 [S]/KM) and inhibitor (1.56–50 µM) concentrations in quadruplicate. Reactions were allowed to run for 6 h. Progress curve data were fitted using a non-linear regression model for time-dependent inhibition (Equation 1) using MatLab software.
First, we performed the ADAM10 reaction with glycosylated substrate in the presence of […] CID 3117694 in kinetic format without pre-incubation. Obtained k obs values were plotted versus [I] to determine whether the inhibitor binding conforms to a 1- or 2-step mechanism (Fig. 4A). […] Future studies will address the exact location of this exosite.
In order to determine true inhibition modality and affinity of CID 3117694, kinetic assays were performed with the range of substrate (0.5–5 [S]/KM) and inhibitor concentrations (1.56–50 µM) in quadruplicate. Reactions were allowed to run for 6 h. Progress curve data were fitted using a non-linear regression model for time-dependent inhibition (Equation 1) using MatLab software. [P]=vst+vi−vs/kobs⁎[1−exp(−kobst)]
Obtained k obs values were plotted versus [I] to determine whether the inhibitor binding conforms to a 1- or 2-step mechanism.
To obtain true potency, Equation 3 was solved for K i and K i ′. Resulting ratio of Ki′/Ki termed α (alpha) was used to determine mechanism of inhibition. In order to confirm the true binding modality, k obs was plotted versus [S]/KM. app^Ki=[S]+KM/KM/Ki+[S]/Ki′

panel of metzincins = assay: Dose response against a panel of metzincins (MMP, meprin, ADAM assays); assay type: biochemical; settings: reordered powder, dilutions starting at 100 µM
Protocol: Powders for 4 compounds (CID # 3117694, 730037, 3153587, and 236330) were reordered from corresponding vendors and tested in 10-point, 1:3 serial dilutions starting at 100 µM in triplicate against ADAM10 and ADAM17 and a panel of metzincins. We examined the activity and selectivity of lead CID 3117694 using an ADAM10 and 17 HPLC-based assays using glycosylated substrate (Fig. 2A).
All assays followed the same general protocol. 5 µL of 2x enzyme solution (5 nM) in assay buffer (50 mM Tricine, 50 mM NaCl, 10 mM CaCl2, 0.05% Brij-35, pH 7.5) were added to solid bottom black 384 plates (Nunc, cat# 264705). Next, test compounds and pharmacological controls were added to corresponding wells using a 384 pin tool device (V&P Scientific, San Diego). […] Reactions were incubated at RT for 1 h, after which the fluorescence was measured using the Synergy H4 multimode microplate reader (Biotek Instruments) (λexcitation = 324 nm, λemission = 390 nm).
Both assays followed the same general protocol. […] After 30 min incubation at RT, the reactions were started by addition of 5 µL of 2x solutions of substrates (20 µM, mepin α Mca-YVADAPK-K(Dnp); and for meprin β Mca-EDEDED-K(Dnp). Reactions were incubated at RT for 1 h, after which the fluorescence was measured using the Synergy H4 multimode microplate reader (Biotek Instruments) (λexcitation = 324 nm, λemission = 390 nm).

A549 cells = assay: Wound closure assay, A549; assay type: cell-based; settings: A549, 10 µM
Protocol: For live-cell analysis of scratch-induced wound closure, 2.5 × 10^4 MDA-MB-231 and A549 cells per well were seeded in collagen G (40 µg/mL) (Biochrom AG, Germany) coated 96-well plates near confluence and allowed to grow overnight in standard medium (DMEM supplemented with 10% FBS and 1% P/S). At confluence, cells were pretreated 2 h with mitomycin (10 µg/mL) (Medac, Germany) to block cell proliferation and washed with standard media. Afterwards, cells were incubated in the presence of inhibitor at the indicated concentrations or DMSO (0.1% vehicle). Subsequently, a defined scratch (wound width between 642–767 µm) was performed in each well using the certified Essen Bioscience automated 96-wound maker^TM (Essen Biosciences, Hertfordshire, UK) for 96 well-plates. The medium was removed and 100 µL standard medium were added to the wells containing either inhibitor or DMSO. The closure of the wounded area was monitored using the IncuCyte ZOOM system by taking images of each well every 2 h over a period of 24 h. The reduction of wound width was determined over time using the IncuCyte ZOOM microscope software 2014A. Data were expressed as percentage of wound closure after 8 h.

COc1cccc(C(=O)NNC(=O)C(=O)Nc2ccc(C)c(Cl)c2)c1 [CID 3117694] was tested, and the “ratio of Ki′/Ki, α (alpha)” value (ADAM10) was 21.7, the Ki (ADAM10; apparent potency at initial velocity, hyperbolic two-step model, read-out: appKi) was 1360 ± 200 nM and the Ki (ADAM10; apparent potency at steady-state velocity, read-out: appKi*) was 330 ± 20 nM. For the same compound, the Ki (ADAM10; binding affinity for enzyme-substrate complex, read-out: Ki) was 19000 nM, the Ki (ADAM10; binding affinity for free enzyme, read-out: Ki) was 883 nM and the inhibition modality (ADAM10; kobs versus [S]/KM and α) was “competitive inhibitor”. For the same compound, the “inhibition of 11 tested metzincins (including ADAM10 and ADAM17)” value (panel of metzincins) was “only ADAM10 was appreciably inhibited” and the “effect on wound healing” value (A549 cells) was “significantly decreased wound healing”.
